Reference: the supplement of paper PMC11451515

Assays:
Experiment in all cases: AUC of viability dose-response curve (% viability x log10 dose units); higher = less sensitive
Conditions in all cases: 48 h
SEM cells = tested on: SEM cells
In short: (§1)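 Leukemia cells adapted to each medium (500 or 1000 cells/well, 1536-well plates) were exposed to library compounds in DMSO for 48 h at 37°C at 11 threefold doses, 47 μM to 0.79 nM. Luminescence by CellTiter-Glo One was normalised per plate to DMSO and cell-free wells, then fitted with a four-parameter log-logistic curve on log10 dose. Curves above full viability were scaled and quality-control failures removed before area under the curve was integrated by trapezoidal rule.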

P12-Ichikawa = tested on: P12-Ichikawa
In short: as §1

NOMO1 = tested on: NOMO1
In short: as §1

[1] = RPMI 5 mM glucose + 10% dialyzed FBS

Row | Structure (SMILES) | AUC of viability dose-response curve (SEM cells; HPLM + 10% dialyzed FBS) | AUC of viability dose-response curve (SEM cells; RPMI 5 mM glucose + 10% FBS) | AUC of viability dose-response curve (SEM cells; [1]) | AUC of viability dose-response curve (P12-Ichikawa; HPLM + 10% dialyzed FBS) | AUC of viability dose-response curve (P12-Ichikawa; RPMI 5 mM glucose + 10% FBS) | AUC of viability dose-response curve (P12-Ichikawa; [1]) | AUC of viability dose-response curve (NOMO1; HPLM + 10% dialyzed FBS) | AUC of viability dose-response curve (NOMO1; RPMI 5 mM glucose + 10% FBS) | AUC of viability dose-response curve (NOMO1; [1])
1 | Cc1ccc(C(=O)c2cc(O)c(O)c([N+](=O)[O-])c2)cc1 | 435 | 466 | 434 | 468 | 449 | 434 | 447 | 424 | 456
2 | CCCCCCCCc1ccc(CCC(N)(CO)CO)cc1 | 441 | 452 | 454 | 432 | 407 | 429 | 353 | 433 | 401
3 | C[C@@H]1C[C@H]2[C@@H]3CC\C4=C\C(=O)\C=C/[C@]4(C)[C@@]3(Cl)[C@@H](O)C[C@]2(C)[C@@]1(OC(=O)C5=CC=CO5)C(=O)CCl | 245 | 236 | 222 | 313 | 265 | 234 | 442 | 454 | 451
4 | CN(C)CC/C=C1/c2ccccc2COc2ccc(CC(=O)O)cc21 | 448 | 454 | 449 | 462 | 467 | 461 | 466 | 437 | 453
5 | CCNc1cc(NC2CCC(O)CC2)nc(Nc2ccc3c(ccn3Cc3ccccc3)c2)n1 (centres undefined) | 471 | 471 | 466 | 474 | 467 | 469 | 471 | 472 | 464
6 | CC(C)c1ccccc1Cc1cc(C(=O)Nc2ccc([S+](=O)([O-])c3ccccc3C(C)(C)C)cc2)c(O)c(O)c1O | 449 | 426 | 422 | 451 | 460 | 457 | 408 | 467 | 464
7 | O=C(CCCCCCC(=O)Nc1ccccc1)NO | 370 | 372 | 369 | 378 | 368 | 367 | 406 | 412 | 427
8 | OCCCNc1cc(-c2ccnc(Nc3cccc(Cl)c3)n2)ccn1 | 249 | 260 | 254 | 308 | 294 | 295 | 264 | 258 | 262
9 | CN1C(=O)/C=C(/NCCN(CCO)CCCC2=CC=C(C=C2)[N+]([O-])=O)N(C)C1=O | 463 | 450 | 454 | 447 | 443 | 441 | 463 | 473 | 443
10 | Nc1nc(OCc2ccccc2)c2nc[nH]c2n1 | 452 | 429 | 454 | 472 | 470 | 471 | 462 | 459 | 465
11 | Cc1[nH]c(/C=C2\C(=O)Nc3ccc([S+](=O)([O-])Cc4c(Cl)cccc4Cl)cc32)c(C)c1C(=O)N1CCC[C@@H]1CN1CCCC1 | 370 | 394 | 361 | 455 | 456 | 430 | 435 | 438 | 432
